The test system of one data set is Acinetobacter baumannii. As to the kind of experiment: microbe, parasite or virus in culture. The data set is classed as cell-based. The procedure:
(§1) An experiment was conducted to determine the minimum inhibitory concentration (MIC) for multi-resistant strains in an antimicrobial activity test. Pseudomonas aeruginosa, Acinetobacter baumannii, and Staphylococcus aureus were cultured in LB medium at 1×10^3 colony-forming units (CFU)/ml. Each strain was treated with WLBU2 peptide and antibiotics, such as ampicillin and erythromycin, at concentrations of 2, 4, 8, 16, 32, 64, 128, 256, and 512 μM, respectively, and then incubated at 37° C. for 18 to 24 hours.
(§2) The minimum inhibitory concentration (MIC) was determined as the […].

The next data set deals with Pseudomonas aeruginosa. Put plainly: microbe, parasite or virus in culture. It is filed as cell-based. The procedure:
as §1, §2

The next data set has as its system Staphylococcus aureus. Put plainly: microbe, parasite or virus in culture. The data set is classed as cell-based. The procedure: as §1, §2
Another data set relates to WLBU2. As to the kind of experiment: SELEX aptamer selection, sequencing fold change of samples binding to WLBU2 vs control. To be noted: samples binding to WLBU2 compared to the control group; SELEX repeated 11 times. The procedure: Aptamers specific to the antimicrobial peptide WLBU2 were developed using the SELEX (Systematic Evolution of Ligands by Exponential Enrichment) method. The SELEX process was repeated a total of 11 times, and the optimal aptamers with high binding affinity to WLBU2 were selected. The aptamer selection process was conducted according to the procedure illustrated in FIG. 1.
Among all the sequences confirmed through sequencing, four representative sequences showing a fold change greater than 2-fold in the samples binding to WLBU2 compared to the control group were developed.

Setting [1] is: Pseudomonas aeruginosa, LB medium, 1×10^3 CFU/ml, 37° C., 18 to 24 hours.

In brackets after ≈: the same amount, converted by molar mass. Read-outs that look alike come from different tables or passages of the source. Peptide text beside a SMILES is read from it. {SH} = thiol modification, used to bind gold nanoparticles Some results are limits rather than exact numbers.

Consider `CC[C@H]1OC(=O)[C@H](C)[C@@H](O[C@H]2C[C@@](C)(OC)[C@@H](O)[C@H](C)O2)[C@H](C)[C@@H](O[C@@H]2O[C@H](C)C[C@H](N(C)C)[C@H]2O)[C@](C)(O)C[C@@H](C)C(=O)[C@H](C)[C@@H](O)[C@]1(C)O` [Erythromycin, erythromycin], for which the MIC in the data set with Acinetobacter baumannii (Acinetobacter baumannii, LB medium, 1×10^3 CFU/ml, 37° C., 18 to 24 hours, read-out: MIC) is greater than 256 µM; in the data set with Pseudomonas aeruginosa (setting [1]), greater than 64 µM; in the data set on Staphylococcus aureus (Staphylococcus aureus, LB medium, 1×10^3 CFU/ml, 37° C., 18 to 24 hours, read-out: MIC) it was greater than 128 µM. On to `CC1(C)S[C@@H]2[C@H](NC(=O)[C@H](N)c3ccccc3)C(=O)N2[C@H]1C(=O)O` [Ampicillin, ampicillin], for which the MIC in the data set with Acinetobacter baumannii (Acinetobacter baumannii) was greater than 256 µM; against Pseudomonas aeruginosa (setting [1]), greater than 64 µM; with Staphylococcus aureus (Staphylococcus aureus), greater than 256 µM. In the case of `CC(C)[C@H](NC(=O)[C@H](Cc1c[nH]c2ccccc12)NC(=O)[C@H](CCCNC(=N)N)NC(=O)[C@H](CCCNC(=N)N)NC(=O)[C@@H](NC(=O)[C@@H](NC(=O)[C@H](CCCNC(=N)N)NC(=O)[C@@H](NC(=O)[C@@H](NC(=O)[C@H](CCCNC(=N)N)NC(=O)[C@H](CCCNC(=N)N)NC(=O)[C@@H](NC(=O)[C@H](Cc1c[nH]c2ccccc12)NC(=O)[C@H](CCCNC(=N)N)NC(=O)[C@H](CCCNC(=N)N)NC(=O)[C@@H](NC(=O)[C@H](CCCNC(=N)N)NC(=O)[C@H](CCCNC(=N)N)NC(=O)[C@@H](NC(=O)[C@H](Cc1c[nH]c2ccccc12)NC(=O)[C@H](CCCNC(=N)N)NC(=O)[C@@H](N)CCCNC(=N)N)C(C)C)C(C)C)C(C)C)C(C)C)C(C)C)C(C)C)C(C)C)C(=O)N[C@@H](CCCNC(=N)N)C(=O)N[C@@H](CCCNC(=N)N)C(=O)O` [WLBU2] (H-RRWVRRVRRWVRRVVRVVRRWVRR-OH; N-terminus and C-terminus assumed), the MIC in the data set on Acinetobacter baumannii (read-out: MIC) is reported as 8 µM (≈ 27.2 µg/mL); with Pseudomonas aeruginosa, 4 µM (≈ 13.6 µg/mL); in the data set on Staphylococcus aureus (read-out: MIC), 4 µM (≈ 13.6 µg/mL).

B1: WLBU2-R-3: SELEX aptamer specific to WLBU2, SEQ No. 4 (nucleic acid)
DNA: AAAACGACGGCCAGTGCGCGCGCTTTGCTTGTGTGAGCATTGCTTTTGCATTATTGGTTTGGTTGGTGTGGTTCGTGCGCGCCATGGTCATAGCTGT
modifications: listed as DNA, chemistry not fully specified
In the data set with WLBU2, B1 showed a FoldChange of 2.7.

B2: WLBU2-R-2: SELEX aptamer specific to WLBU2, SEQ No. 3 (nucleic acid)
DNA: AAAACGACGGCCAGTGGCTGGTAGGTTTGGGTGGTTTGGTTGGGATTCGGTTGGTTGGTACCAGCCATGGTCATAGCTGT
modifications: listed as DNA, chemistry not fully specified
B2 registered a FoldChange in the data set with WLBU2 of 3.67.

B3: WLBU2-R: SELEX aptamer specific to WLBU2, SEQ No. 1 in Table 2; thiol-modified at 3′-terminal for binding to gold nanoparticles (nucleic acid)
DNA: AAAACGACGGCCAGTGCGCGCGCTTTGCTTGTGTGAGCATTGCTTTTGCATTATTGGTTTGGTTGGTGTGGTTCGTGCGCGCCATGGTCATAGCCTGT
modifications: DNA, 3' {SH}, backbone and methylation of C not given here
On to B3, for which the FoldChange with WLBU2 came out at 2.2.

B4: WLBU2-R-1: SELEX aptamer specific to WLBU2, SEQ No. 2 (nucleic acid)
DNA: AAAACGACGGCCAGTCTTTCGCGGGGTCTGGGGTTGGGGTTGTGGGTTAATTGCACTTCGAAATGCATGGTCATAGCTGT
modifications: listed as DNA, chemistry not fully specified
On to B4, for which the FoldChange in the data set with WLBU2 was 3.28.
